The values below come from a melting point compilation (Tetko et al.; mined from patent text by program, amines drawn as free bases though some values may be those of a salt).

For orientation: melting point means the temperature of the solid-liquid transition.

As for `C#CCOc1c(Cl)cc(Cl)cc1C(=O)O`, the melting point fell in the range of 163 to 164 °C.

On to `Clc1ccc(CN2CCN=C2C(Cn2ccnc2)c2ccccc2)c(Cl)c1` (centres undefined), for which the melting point was 120 to 135 °C.

In turn, `CCCc1nc(-n2cccc2C(=O)C(F)(F)F)c(C(=O)OC)[nH]1` had a melting point of 158 to 159 °C.

Compound `CC(C)C(=O)NCCCC(=O)OC1c2ccccc2C(=O)N1c1ccc2ccc(Cl)nc2n1` (centres undefined) gave a melting point of 208 °C.

`CCOC(=O)ONC(=N)c1cc(C(C)(C)C)c(OCOCCOC)c(C(C)(C)C)c1` yielded a melting point of 115 to 117 °C.

For `O=C(O)C(Cl)(Cl)CCCCCCCCCCOc1ccc(Cl)cc1`, the melting point was in the range of 63 to 64 °C.

With `CC(C)(C)C(NC(=O)c1ccc(Cl)cc1)Nc1c(Nc2cccnc2F)c(=O)c1=O` (centres undefined), the melting point is 231 to 234 °C.

Compound `NC(=O)c1ncn(CCCc2ccc(OCc3coc(/C=C/c4ccccc4)n3)cc2)c1C(N)=O` gave a melting point of 194 to 195 °C.

For `CC1OC(Cn2cncn2)(c2ccc(Cl)cc2Cl)OC1C` (single isomer, unassigned; (-)), the melting point was found to be 82.5 °C.

Compound `Clc1c2c(nc3ccccc13)CCCNC2` yielded a melting point of 127 °C.

With `CN(C)C=CC(=O)c1ccc(C(F)(F)F)cc1[N+](=O)[O-]`, the melting point amounted to 101 °C.

As for `CCOC(=O)c1cc(=O)c2cc(OCCC(C)C)ccc2s1`, the melting point is 83 to 84 °C.

For `OCC1OC(n2c(Cl)c(-c3ccsc3)c3cc(Cl)c(Cl)cc32)C(O)C1O` (centres undefined), the melting point fell in the range of 152 to 153 °C.

For `O=C(NCC(=O)N(c1ccccc1)c1ccccc1)Nc1cccc(Cl)c1Cl`, the melting point came to 210 °C.

`COc1cc2ccc(S(=O)(=O)Cl)cc2cc1OC` showed a melting point of 128 to 130 °C.

The compound `O=C(Nc1ccc(Cl)c(Cl)c1)ONC1=Nc2ccc([N+](=O)[O-])cc2C(c2ccccc2Cl)=NC1` returned a melting point of 190 to 192 °C.

Compound `COc1ccc2ncc(N)c(Nc3ccccc3Cl)c2c1` had a melting point of 120 to 123 °C.

Take `CCOc1cc(-c2ccc(C(F)(F)F)cc2)nc(-c2cccc(C(F)(F)F)c2)c1`: the melting point was 95.1 °C.

`Cc1c(Cl)cccc1Nc1ncccc1C(=O)OCOC(=O)C(C)(C)C`: the melting point lay within 90 to 91 °C.

`CCCCCCCCCCCCCCCCOc1cc(NS(=O)(=O)c2cc([N+](=O)[O-])ccc2N2CCOCC2)c(OC(C)=O)cc1C`: the melting point was 95 to 96 °C.

`CSc1ccc(-c2cc(-n3ccc(C(F)(F)F)n3)c3ccccc3n2)cc1` came in with a melting point of 116 to 118 °C.

For the compound `CS(=O)(=O)Nc1c(-c2cc(Cl)ccc2O)c2cc(C(F)(F)F)ccc2[nH]c1=O`, the melting point lay in the range of 263 to 265 °C.

Regarding `CCOC(=O)c1c(N)sc(-c2ccc([N+](=O)[O-])cc2)c1C`, the melting point was 117 to 119 °C.

In turn, `CCOC(=O)Cc1ccc(CCC(NC(=O)OC)C(=O)O)cc1` (centres undefined) had a melting point of 108 to 110 °C.

On to `O=C(O)CCCc1cnoc1-c1ccccc1`, for which the melting point lay in the range of 67 to 68 °C.

The compound `COc1cc(C(C)=O)cc(N)c1OC` had a melting point of 63 to 65 °C.

On to `COc1ccc(C(Sc2c(N)ccc3ccccc23)C(O)C(=O)O)cc1` (centres undefined), for which the melting point is 143 to 145 °C.

Take `CC(C)(C)OC(=O)N1CCC[C@H](COc2cccnc2Br)C1`: the melting point was in the range of 79 to 81 °C.

`COc1cc(OC)c2c(=O)[nH]c(-c3cc(C)c(O)c(C)c3)nc2c1` gave a melting point of 291 to 293 °C.

For the compound `CCCC(=O)Oc1ccc(-c2ccc(C#N)cc2)cc1`, the melting point lay within 77.9 to 78.2 °C.

Take `CCCCCCCCCCCCCCCCCCOc1cccc(C(=O)OC)c1O`: the melting point was 57 to 60 °C.

For `CCCc1ccc(C(=O)Nc2ccc3c(c2)CCCC3=O)cc1`, the melting point is 168 to 170 °C.

`COc1ccc2c(c1)Sc1ccc(SC)cc1C(O)C2` (centres undefined): the melting point fell in the range of 122 to 124 °C.

As for `Cc1cc(O)ccc1-c1c(C=O)sc(-c2ccc(O)cc2)c1C`, the melting point lay within 244 to 247 °C.

As to `CCOCc1nc2c(N)nc3ccccc3c2n1CCCCCS(N)(=O)=O`, the melting point was 176 to 178 °C.

For the compound `Nc1ncc2cc(-c3c(Cl)cccc3Cl)c(N)nc2n1`, the melting point lay in the range of 325 to 332 °C.

Consider `C=CCC(=O)Nc1n[nH]c2cc(Cl)ccc12`, for which the melting point amounted to 150 °C.

For the compound `CNC(=O)N(N)c1nnc(C(F)(F)F)s1`, the melting point lay within 181 to 182 °C.

As to `CNS(=O)(=O)c1ccc(NN=C2C(=O)Nc3ccc4ncsc4c32)cc1`, the melting point was > 260 °C.

With `Cn1ccnc1Sc1ccc(Nc2c(C#N)cnc3sccc23)cc1Cl`, the melting point is > 240 °C.

As to `Cc1ccc(S(=O)(=O)OCC2Cc3cccc(-c4ccccc4F)c3O2)cc1` (centres undefined), the melting point is 99 to 101 °C.

The compound `O=C(CBr)OCCCCOC(=O)CBr` displayed a melting point of 62 to 62.5 °C.

In turn, `CCCCCCN(CCCCCC)c1c(N[C@@H](Cc2cn(Cc3ccccc3)cn2)C(=O)O)c(=O)c1=O` showed a melting point of 75 to 80 °C.

For `Cc1ccc(S(=O)(=O)OCC2COc3ccc(N)c(N)c3O2)cc1` (centres undefined), the melting point was 178 to 180 °C.

For the compound `CCC(=O)Nc1cc(-c2c(-c3cccc(C)c3)nc3cccnn23)ccn1`, the melting point is 138 to 139 °C.

For the compound `CCOC(=O)c1cc(C(=O)Nc2ccccc2OC(C)=O)cc(Cl)c1O`, the melting point fell in the range of 163 to 166 °C.

As for `CCCCCCCCCCCCCCCCCCS(=O)(=O)c1cc2ccccc2c(N=Nc2ccc(OC)cc2)c1O`, the melting point was 117 to 119 °C.

For the compound `COc1ccc(CCN(C)C)c2[nH]c(=S)[nH]c12`, the melting point lay within 213 to 216 °C.

`COC1=C(OC)C(=O)C2=C(CCC(CCOc3ccc(CO)cc3)CC2)C1=O` returned a melting point of 57 to 59 °C.

`CCN1c2ccccc2N(C(=O)CN(C)C)c2ccccc2S1(=O)=O` yielded a melting point of 115 to 116 °C.

As to `CCOC(=O)C(C#N)=CNc1ncccc1C`, the melting point is 139 to 143 °C.

In the case of `COc1ccccc1S(=O)(=O)N(C)c1cccc2cc(C3=NCC(CCO)S3)[nH]c12` (centres undefined), the melting point lay in the range of 154 to 155 °C.

In the case of `N#Cc1ccc(CN2C(=O)C3(COc4cc5c(cc43)OCCO5)c3ccccc32)cc1` (centres undefined), the melting point was 69 to 72 °C.

On to `CON=C(C)c1ccc2c(c1)ncn2-c1cccc(-c2nccs2)c1`, for which the melting point was in the range of 157 to 159 °C.

`CCCOC(=O)C1=C(C)NC(C)=C(C(=O)OCC2CC2)C1c1cccc([N+](=O)[O-])c1` (centres undefined): the melting point lay in the range of 167 to 168 °C.

Turning to `CC(c1oc2ccccc2c(=O)c1-c1cccc(F)c1)n1nc(-c2cccc(OC(F)F)c2)c2c(N)ncnc21` (centres undefined), the melting point is 176 to 179 °C.

As for `O=C(O)COc1c(-c2cc(Cl)cc(Cl)c2)cc(C(=O)NCCCCCCCCc2ccccc2)cc1-c1cc(Cl)cc(Cl)c1`, the melting point fell in the range of 139 to 149 °C.

The compound `COC(=O)C1=Cc2cc(-c3ccc(OC(F)(F)F)cc3)ccc2S(=O)(=O)CC1` gave a melting point of 142 to 143 °C.

For `COC(=O)COc1cc2c(c(Cl)c1C)C(=O)C1(CCCC1)C2=O`, the melting point lay in the range of 152 to 154 °C.

As for `O=c1[nH]c2cc(Sc3cccc4cnccc34)c([N+](=O)[O-])cc2s1`, the melting point is > 270 °C.

The compound `COc1cccc(CN2Cc3cc(OC)c(OCc4ccccc4)cc3C(O)C2)c1` (centres undefined) yielded a melting point of 115 to 116 °C.

Compound `O=c1c2c(nc3ccc(Cl)cn13)C(=Cc1ccccc1Cl)CC2` came in with a melting point of 249 to 250 °C.

The compound `COc1cc(C#N)ccc1-c1ccnc(-c2ccc(C#N)cc2)n1` registered a melting point of 239 to 240 °C.

Take `Cc1nc(N)c2nc(C)n(CCOCCNC(=O)N3CCOCC3)c2c1C`: the melting point was in the range of 205 to 207 °C.

As to `O=C1NCCc2[nH]c3ccc(F)cc3c21`, the melting point was 242 to 245 °C.

In turn, `COc1cc2cc(C(N)=O)sc2cc1OC` registered a melting point of 211 to 213 °C.

For the compound `Cc1ccc(OC(Cc2ccc(OCCNC(=O)c3ccc(-c4ccccn4)cc3)cc2)C(=O)O)cc1` (centres undefined), the melting point was in the range of 129 to 131 °C.

On to `COc1cc(C)c(C(=O)c2c(Cl)cccc2Cl)cc1OC`, for which the melting point lay in the range of 101 to 103 °C.

The compound `CC(C)(C)OC(=O)N1CCC(c2nc3cc(-c4ccc(C(N)=O)c(Cl)c4)ccc3o2)CC1` displayed a melting point of 169 to 171 °C.

`CCOC(=O)c1cc(-c2ocnc2C)[nH]n1`: the melting point was in the range of 131 to 133 °C.

For `N#CCOc1ccc2cc(Br)ccc2c1Cl`, the melting point was 126 to 127 °C.

`COc1cc2cnc(C(=O)O)cc2cc1OC`: the melting point was determined as 228 °C.

For the compound `CCC(=O)C1(O)CC=C2CC3C4C=CC(O)C5OC1=C2C45CCN3C` (centres undefined), the melting point is 85 to 86 °C.

As to `CC(C)(O)c1cc(Br)ccc1N`, the melting point lay within 62 to 63 °C.

`O=C1NC(=O)C(CC#Cc2ccc(Cl)cc2)(Sc2nc3cc(Cl)ccc3s2)S1` (centres undefined) gave a melting point of 187 to 188 °C.

On to `Cn1cc(NC(=O)c2cc(NC(=O)c3cc([N+](=O)[O-])cn3C)cn2C)cc1C(=O)NCCN1CCOCC1`, for which the melting point is > 230 °C.

Compound `CCNC(=S)NCc1ccc(/C=C/C(c2cc(Cl)c(Cl)c(Cl)c2)C(F)(F)F)cc1Cl` (centres undefined) registered a melting point of 88 to 91 °C.

For `C[C@@]1(C(=O)O)Oc2ccccc2NC1=O`, the melting point was 168 to 171 °C.

As to `CCCCCCCCCC(O)C#CC(=O)O` (centres undefined), the melting point fell in the range of 65 to 66 °C.

Consider `CC(=O)c1ccc(-c2ccccc2)cc1O`, for which the melting point lay within 90 to 92 °C.

With `N#CCc1nc2c(s1)Cc1cc(Cl)ccc1-2`, the melting point amounted to 134 °C.

For the compound `Cc1ccc([N+](=O)[O-])c2[nH]ccc(=O)c12`, the melting point was 219 to 225 °C.

With `CCn1cc(C(=O)NC2Cc3ccccc3C2)c(=O)c2cnc(N3CCCC3)nc21`, the melting point lay in the range of 252 to 253 °C.

`CCCCNC(=O)OC1c2cc(C(F)(F)F)ccc2C(=O)N1c1ccc2ccc(Cl)nc2n1` (centres undefined) had a melting point of 120 °C.

In turn, `Cc1cc(-c2ccc(Cl)cc2)cn2c(-c3nc(-c4ccc(S(N)(=O)=O)s4)no3)cnc12` displayed a melting point of 271 °C.

`CC(=O)N(C)C(=O)Oc1cccc2c1OC(C)(C)O2` displayed a melting point of 76 to 77 °C.

In turn, `N=C(NC(=O)Nc1ccccc1[N+](=O)[O-])c1ccccc1` showed a melting point of 144 to 146 °C.

`O=C(O)c1ccc2c(c1)C=C(CCN1CCCC1)CC2` showed a melting point of 202 to 203 °C.

With `O=c1[nH]c2ccccc2cc1CC1CCc2ccccc2N1` (centres undefined), the melting point lay in the range of 196 to 199 °C.
